Assay results: paper PMC11973506, “In vitro α–Glucosidase Inhibition, Cytotoxicity, SAR, Swiss ADME Prediction and Molecular Docking Study of New N–Substituted Hydantoin Derivatives” (ChemistryOpen, 2025)
Like-named read-outs stand apart in the source and are kept apart here.

Assays:
[1] = target: T1, Saccharomyces cerevisiae α-glucosidase (Saccharomyces cerevisiae, UniProt P53341); test: In vitro α-glucosidase inhibition assay (p-nitrophenyl glucopyranoside substrate); type: biochemical
T1 construct: purchased
T1 sequence (P53341 whole entry): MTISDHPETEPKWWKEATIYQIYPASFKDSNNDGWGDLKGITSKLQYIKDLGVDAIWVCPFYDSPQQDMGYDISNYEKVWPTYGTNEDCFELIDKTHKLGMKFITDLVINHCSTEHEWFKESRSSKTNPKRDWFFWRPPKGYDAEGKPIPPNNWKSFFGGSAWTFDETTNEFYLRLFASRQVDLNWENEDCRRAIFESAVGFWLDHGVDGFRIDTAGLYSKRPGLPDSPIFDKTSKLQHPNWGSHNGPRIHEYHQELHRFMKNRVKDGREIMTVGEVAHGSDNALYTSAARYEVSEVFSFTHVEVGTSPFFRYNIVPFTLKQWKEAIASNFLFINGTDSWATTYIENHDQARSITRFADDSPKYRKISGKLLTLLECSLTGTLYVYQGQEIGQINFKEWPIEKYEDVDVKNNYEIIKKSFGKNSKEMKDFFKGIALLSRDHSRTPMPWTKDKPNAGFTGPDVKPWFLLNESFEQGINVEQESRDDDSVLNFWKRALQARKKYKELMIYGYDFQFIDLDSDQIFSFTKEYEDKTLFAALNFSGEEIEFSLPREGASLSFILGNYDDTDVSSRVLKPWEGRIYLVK
Description: Using Saccharomyces cerevisiae α‐glucosidase enzymes, hydantoin derivatives 8 a–o were evaluated for them for their in vitro α‐glucosidase activity.
The α‐glucosidase inhibitions of compounds 8 a–o were screened as described in our previous method.[21] Epigallacatechin gallate (EGCG) was used as positive control. The α‐glucosidase enzyme (Saccharomyces Cerevisiae, 50 μg/mL) and substrate (p‐nitrophenyl glucopyranoside) were dissolved in a solution of potassium phosphate buffer (pH 6.3, 3 mM). Final compounds 8 a–o were dissolved in DMSO to give a final concentration of 200 μM. […] All samples (5 μL), enzyme (20 μL), and potassium phosphate buffer (60 μL) were added to the 96‐well plate and incubated at 37 °C for 5 min. Thereafter, the substrate (10 μL, 4 mM) was added to the mixture and incubated at 37 °C for 20 min followed by the addition of sodium carbonate (25 μL). Finally, the absorbance readings were measured by BioTek® PowerWave XS spectrophotometer (Winooski, VT, USA). Since the enzyme and substrate controls […], the percentage of α‐glucosidase inhibition was calculated using follows: (1) %α-glucosidaseinhibition=(A405nmofcontrol-A405nmoftestsample)/A405nmofcontrol×100

Caco2 cell line = conditions: 48 hours of treatment with 100 μM, below 2000 considered toxic
Description: Cytotoxicity screening is one of the important tools used to determine whether a compound is toxic or not. Furthermore, these assays are performed by testing the ability of cells to continue proliferating in the presence of a test compound or substance over a specific period.[23] All hydantoin title compounds 8 a–o were screened for their in vitro cytotoxicity activity using the Caco2 cell line against the untreated (UT) and melphalan as a control. […] Any compound with living cells below […] was considered to be toxic.
The human colorectal adenocarcinoma cell line (CaCO2) used to screen the cytotoxicity of compounds 8 a–o was based on our initially described protocol.[21] […] Samples were sonicated if solubility was a problem and stored at 4 °C until required. Melphalan (100 mM stock) was prepared in DMSO and used as a positive control at a final concentration of 30 μM. The cells (4000 cells/well) were seeded in 96 well plates at 100 μL aliquots and were left for 24 hours to attach. After 24 hours, the 100 μL of the medium was treated with 100 μL aliquots of 200 μM dilution. Cells were maintained in 10 cm culture dishes in 10 mL complete medium (DMEM‐LG+10 % FBS+1× penicillin/streptomycin) and incubated for 48 hours at 37 °C, 5 % CO2, and 100 % relative humidity until needed. After incubation 100 μL staining solution Hoechst (5 μg/mL) and 10 μL PI solution were stained on the plates before they were incubated again for 30 min. Quantification of live and dead cells was performed using the ImageXpress Micro XLS Widefield Microscope (Molecular Devices) using a 10× Plan Fluor objective and DAPI and Texas Red filter cubes. Acquired images were analyzed using the MetaXpress software and Multi‐Wavelength Cell Scoring Application Module. Acquired data was transferred to an Excel spreadsheet and data was analyzed and processed.

[2] = text statement for 50 and 100 μM together

Row | Compound | inhibition at 200 µM ([1]; 200 μM) | α-glucosidase inhibition ([1]; 200 μM) | α-glucosidase inhibition [1, 2] | Cytotoxicity, live cells (Caco2 cell line) | Cytotoxicity, live cells (Caco2 cell line; listed as 8a) | inhibition at 50 µM ([1]; 50 μM) | inhibition at 100 µM ([1]; 100 μM) | α-glucosidase inhibition ([1]; 10 μM) | inhibition at 10 µM ([1]; 10 μM) | α-glucosidase inhibition ([1]; 50 μM) | α-glucosidase inhibition ([1]; 100 μM)
1 | COC(=O)C(C)NC(=O)CN1C(=O)N/C(=C\c2ccc(OC)cc2)C1=O (stereo not drawn) [8 a] | 51.6 ± 2.92% | moderate inhibition | no activity | 2605 | 2605 ± 293 |  |  |  |  |  | 
2 | CCC(NC(=O)CN1C(=O)NC(=Cc2ccc(OC)cc2)C1=O)C(=O)OC (stereo not drawn) [8 b] | 39.3 ± 1.01% |  |  |  |  | 0.43 ± 16.8% |  |  |  |  | 
3 | COC(=O)C(NC(=O)CN1C(=O)N/C(=C\c2ccc(OC)cc2)C1=O)C(C)C (stereo not drawn) [8 c] | 41 ± 2.62% |  |  |  |  | 3.37 ± 11.5% | 9.51 ± 19.7% |  |  |  | 
4 | COC(=O)C(C)NC(=O)CN1C(=O)N/C(=C\c2ccc(C)cc2)C1=O (stereo not drawn) [8 e] | 51.4% | 31.35 ± 1.95% |  | 2567 ± 299 |  | 9.01 ± 16.4% | 9.75 ± 6.4% | ‐ |  |  | 
5 | CCC(NC(=O)CN1C(=O)N/C(=C\c2ccc(C)cc2)C1=O)C(=O)OC (stereo not drawn) [8 f] |  |  |  | 2230 ± 570 |  | 8.87 ± 21.3% | 12.2 ± 10.9% |  | 4.92 ± 18% |  | 
6 | COC(=O)C(NC(=O)CN1C(=O)N/C(=C\c2ccc(C)cc2)C1=O)C(C)C (stereo not drawn) [8 g] | 45.2 ± 3.6% |  |  |  |  | 4.13 ± 4.26% | 18 ± 3.95% |  | 1.8 ± 13.8% |  | 
7 | CCCC(NC(=O)CN1C(=O)N/C(=C\c2ccc(C)cc2)C1=O)C(=O)OC (stereo not drawn) [8 h] | 42.8 ± 4.3% |  |  |  |  | 16.3 ± 15.2% | 25.4 ± 7.88% |  | 3.45 ± 13.6% |  | 
8 | CCOC(=O)C(C)NC(=O)CN1C(=O)N/C(=C\c2ccc(C)cc2)C1=O (stereo not drawn) [8 i] | 44.6 ± 0.99% |  | no activity | 2595 ± 289 |  |  |  | ‐ |  | ‐ | ‐
9 | CCOC(=O)C(NC(=O)CN1C(=O)N/C(=C\c2ccc(C)cc2)C1=O)C(C)C (stereo not drawn) [8 j] | 48.5 ± 2.33% |  |  | 2565 ± 198 |  | 13.8 ± 9.6% | 19.2 ± 10.2% |  | 6.49 ± 17.8% |  | 
10 | CCCC(NC(=O)CN1C(=O)N/C(=C\c2ccc(C)cc2)C1=O)C(=O)OCC (stereo not drawn) [8 k] | 41.9 ± 3.31% |  |  |  |  | 14.5 ± 5.42% | 17 ± 8.54% |  |  |  | 
11 | COC(=O)C(C)NC(=O)CN1C(=O)N/C(=C\c2ccc3c(c2)OCO3)C1=O (stereo not drawn) [8 l] | 57.4 ± 4.05% |  |  |  |  | 7.7 ± 17.8% | 9.6 ± 23% | ‐ |  |  | 
12 | CCC(NC(=O)CN1C(=O)N/C(=C\c2ccc3c(c2)OCO3)C1=O)C(=O)OC (stereo not drawn) [8 m] | 37.6 ± 10% |  |  |  |  | 6.94 ± 10.9% | 11.2 ± 11% | ‐ |  |  | 
13 | CCOC(=O)C(NC(=O)CN1C(=O)N/C(=C\c2ccc3c(c2)OCO3)C1=O)C(C)C (stereo not drawn) [8 n] | 57.4 ± 2.79% |  |  | 2039 ± 740 |  | 14 ± 16.4% | 28.3 ± 17.3% |  | 0.73 ± 11.4% |  | 
14 | CCCC(NC(=O)CN1C(=O)N/C(=C\c2ccc3c(c2)OCO3)C1=O)C(=O)OC (stereo not drawn) [8 o] | 57.8 ± 6.38% |  |  |  |  | 16 ± 17.9% | 37.4 ± 24.9% |  | 11.3 ± 15.2% |  | 
15 | O=C(O[C@@H]1Cc2c(O)cc(O)cc2O[C@@H]1c1cc(O)c(O)c(O)c1)c1cc(O)c(O)c(O)c1 [EGCG, Epigallocatechin gallate, reference compound] | 97.03 ± 0.41% |  |  |  |  | 97.03 ± 0.41% | 97.03 ± 0.41% |  | 97.03 ± 0.41% |  | 
